Experimental data: ChEMBL document CHEMBL1137993, “Novel histone deacetylase inhibitors: cyclic tetrapeptide with trifluoromethyl and pentafluoroethyl ketones” (Bioorg Med Chem Lett, 2004)

Tested on: Nucleic Acid

EC50 [µM]	SMILES
3.09	CC[C@H](C)[C@@H]1NC(=O)[C@@H](Cc2ccc(OC)cc2)NC(=O)[C@H](CCCCCC(=O)C(F)(F)F)NC(=O)[C@H]2CCCN2C1=O
31.1	CC[C@H](C)[C@@H]1NC(=O)[C@@H](Cc2ccc(OC)cc2)NC(=O)[C@H](CCCCCC(=O)C(F)(F)C(F)(F)F)NC(=O)[C@H]2CCCN2C1=O
0.77	CC(/C=C/C(=O)NO)=C\[C@@H](C)C(=O)c1ccc(N(C)C)cc1 [TRICHOSTATIN]
